Series [1] concerns the target T1, muscarinic M1 receptor (Homo sapiens, UniProt P11229).
T1 construct: expressed in transfected cells; host or cells: CHO (M1-CHO cells)
T1 sequence (P11229 1-460): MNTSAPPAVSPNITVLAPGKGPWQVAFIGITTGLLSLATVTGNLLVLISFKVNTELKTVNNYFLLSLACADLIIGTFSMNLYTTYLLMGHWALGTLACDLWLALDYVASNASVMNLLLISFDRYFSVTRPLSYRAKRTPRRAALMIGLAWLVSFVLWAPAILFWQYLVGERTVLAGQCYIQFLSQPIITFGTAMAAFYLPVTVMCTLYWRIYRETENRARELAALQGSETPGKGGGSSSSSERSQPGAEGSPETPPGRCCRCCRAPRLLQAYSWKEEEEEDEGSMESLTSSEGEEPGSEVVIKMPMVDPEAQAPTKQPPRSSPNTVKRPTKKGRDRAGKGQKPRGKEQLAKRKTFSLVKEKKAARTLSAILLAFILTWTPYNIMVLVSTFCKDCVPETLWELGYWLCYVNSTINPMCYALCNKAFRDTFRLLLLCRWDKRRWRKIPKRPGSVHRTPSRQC
Kind of series: M1 PAM Assay (IP-One HTRF, IP1 in M1-CHO cells with EC20 of acetylcholine). It counts as cell-based. The conditions noted are these: 1 hour at room temperature, IP1 readout. As to the method:
M1-CHO cells are plated in culture medium (HAM's F12, P/S, 10% FCS) on the day before the experiment with 10 000 cells/well in a 384 well plate (3750 Corning White 384 w plate with lid). On the day of experiment, cells are washed with PBS and IPone buffer is added (glucose 5.5 mM, NaCl 146 mM, MgCl2 0.5 mM, HEPES 10 mM, LiCl 50 mM, CaCl2 1 mM, KCl 4.2 mM). Then diluted compounds (1% DMSO final concentration) are added together with EC20 of acetylcholine and incubated with the cells for 1 hour at room temperature. The intracellular concentration of IP1 is then measured using the IP-One HTRF assay from Cisbio.
A general note: In TR-FRET formats the signal depends on donor and acceptor labels being close together.

Consider `Cc1nc2c3c(nn2c(C)c1Cl)CN(C(=O)c1ccccc1CN(CCN(C)C)CC(F)(F)F)C3` [Example 154, (6-chloro-5,7-dimethyl-1H,3H-2,4,7a,8-tetraaza-cyclopenta[a]inden-2-yl)-(2-{[(2-dimethylamino-ethyl)-(2,2,2-trifluoro-ethyl)-amino]-methyl}-phenyl)-methanone], for which the melting point was 168 to 174 °C. The molecule `CC(C)Oc1ccccc1C(=O)N1Cc2nn3cc(Cl)cnc3c2C1` [Example 42, (6-chloro-1H,3H-2,4,7a,8-tetraaza-cyclopenta[a]inden-2-yl)-(2-isopropoxy-phenyl)-methanone] had a melting point of 160 to 161 °C. For the same molecule, the EC50 in series [1] lay within 1000 to 2000 nM. On to `Cc1nc2c3c(nn2c(C)c1Cl)CN(C(=O)c1ccccc1CN1CCN2CCCC2C1)C3` (stereo not shown) [Example 97, (6-chloro-5,7-dimethyl-1H,3H-2,4,7a,8-tetraaza-cyclopenta[a]inden-2-yl)-[2-(hexahydro-pyrrolo[1,2-a]pyrazin-2-ylmethyl)-phenyl]-methanone], for which the melting point lay in the range of 180 to 182 °C.

Turning to `O=C(c1ccccc1OC(F)(F)C(F)F)N1Cc2nn3cc(Cl)cnc3c2C1` [Example 106, (6-chloro-1H,3H-2,4,7a,8-tetraaza-cyclopenta[a]inden-2-yl)-[2-(1,1,2,2-tetrafluoro-ethoxy)-phenyl]-methanone], the melting point is 194 to 196 °C. `Cc1nc2c3c(nn2c(C)c1Cl)CN(C(=O)c1ccccc1CN1CCCN(C)CC1)C3` [Example 95, (6-Chloro-5,7-dimethyl-1H,3H-2,4,7a,8-tetraaza-cyclopenta[a]inden-2-yl)-[2-(4-methyl-[1,4]diazepan-1-ylmethyl)-phenyl]-methanone] had a melting point of 138 to 141 °C. In turn, `Cc1nc2c3c(nn2c(C)c1Cl)CN(C(=O)c1ccccc1OCCN(C)C)C3` [Example 8, (6-chloro-5,7-dimethyl-1H,3H-2,4,7a,8-tetraaza-cyclopenta[a]inden-2-yl)-[2-(2-dimethylamino-ethoxy)-phenyl]-methanone] displayed a melting point of 156 to 159 °C. The same molecule showed an EC50 in series [1] of 200 to 1000 nM. In the same order, the values of `Cc1nc2c3c(nn2c(C)c1Cl)CN(C(=O)c1ccccc1OCC(C)C)C3` [Example 30, (6-Chloro-5,7-dimethyl-1H,3H-2,4,7a,8-tetraaza-cyclopenta[a]inden-2-yl)-(2-isobutoxy-phenyl)-methanone] are 184 to 187 °C and 1000 to 2000 nM. Turning to `COc1c(F)cc(F)cc1C(=O)N1Cc2nn3c(C)c(Cl)c(C)nc3c2C1` [Example 16, (6-chloro-5,7-dimethyl-1H,3H-2,4,7a,8-tetraaza-cyclopenta[a]inden-2-yl)-(3,5-difluoro-2-methoxy-phenyl)-methanone], the melting point lay in the range of 185 to 187 °C. In series [1], this molecule showed an EC50 of 200 to 1000 nM. Take `Cc1nc2c3c(nn2c(C)c1C)CN(C(=O)c1ccccc1OCCN(C)C)C3` [Example 22, [2-(2-dimethylamino-ethoxy)-phenyl]-(5,6,7-trimethyl-1H,3H-2,4,7a,8-tetraaza-cyclopenta[a]inden-2-yl)-methanone]: the melting point lay within 148 to 150 °C. The concentration giving a half-maximal response (EC50) in series [1] lay within 200 to 1000 nM. As to `O=C(c1ccc(F)cc1OC(F)(F)C(F)F)N1Cc2nn3cc(Cl)cnc3c2C1` [Example 138, (6-chloro-1H,3H-2,4,7a,8-tetraaza-cyclopenta[a]inden-2-yl)-[4-fluoro-2-(1,1,2,2-tetrafluoro-ethoxy)-phenyl]-methanone], the melting point lay within 208 to 210 °C. `Cc1nc2c3c(nn2c(C)c1Cl)CN(C(=O)c1ccccc1CN1CCNCC1=O)C3` [Example 117, 1-[2-(6-chloro-5,7-dimethyl-1H,3H-2,4,7a,8-tetraaza-cyclopenta[a]indene-2-carbonyl)-benzyl]-piperazin-2-one] showed a melting point of 176 to 183 °C. In turn, `CCCCOc1ccccc1C(=O)N1Cc2nn3c(C)c(Cl)c(C)nc3c2C1` [Example 11, (2-butoxy-phenyl)-(6-chloro-5,7-dimethyl-1H,3H-2,4,7a,8-tetraaza-cyclopenta[a]inden-2-yl)-methanone] displayed a melting point of 167 to 169 °C. The same molecule had an EC50 in series [1] of 200 to 1000 nM. `CCOc1ccc(Br)cc1C(=O)N1Cc2nn3c(C)c(C)c(C)nc3c2C1` [Example 45, (5-bromo-2-ethoxy-phenyl)-(5,6,7-trimethyl-1H,3H-2,4,7a,8-tetraaza-cyclopenta[a]inden-2-yl)-methanone] came in with a melting point of 208 to 215 °C. This molecule also showed an EC50 in series [1] of 1000 to 2000 nM. In the case of `Cc1nc2c3c(nn2c(C)c1Cl)CN(C(=O)c1ccccc1CN1CCC(O)C1)C3` (stereo not shown) [Example 72, (6-chloro-5,7-dimethyl-1H,3H-2,4,7a,8-tetraaza-cyclopenta[a]inden-2-yl)-[2-(3-hydroxy-pyrrolidin-1-ylmethyl)-phenyl]-methanone], the melting point fell in the range of 210 to 217 °C. Molecule `Cc1nc2c3c(nn2c(C)c1Cl)CN(C(=O)c1ccccc1CN1CCCNCC1)C3` [Example 118, (6-chloro-5,7-dimethyl-1H,3H-2,4,7a,8-tetraaza-cyclopenta[a]inden-2-yl)-(2-[1,4]diazepan-1-ylmethyl-phenyl)-methanone] returned a melting point of 185 to 192 °C. Molecule `Cc1nc2c3c(nn2c(C)c1Cl)CN(C(=O)c1ccccc1CN1CCC(O)(C(F)(F)F)CC1)C3` [Example 90, (6-chloro-5,7-dimethyl-1H,3H-2,4,7a,8-tetraaza-cyclopenta[a]inden-2-yl)-[2-(4-hydroxy-4-trifluoromethyl-piperidin-1-ylmethyl)-phenyl]-methanone] had a melting point of 223 to 227 °C. `CSc1ccccc1C(=O)N1Cc2nn3c(C)c(C)c(C)nc3c2C1` [Example 25, (2-methylsulfanyl-phenyl)-(5,6,7-trimethyl-1H,3H-2,4,7a,8-tetraaza-cyclopenta[a]inden-2-yl)-methanone]: the EC50 in series [1] fell in the range of 200 to 1000 nM. Take `Cc1nc2c3c(nn2c(C)c1Cl)CN(C(=O)c1ccccc1CN1CCCC(N)C1)C3` (stereo not shown) [Example 125, [2-(3-amino-piperidin-1-ylmethyl)-phenyl]-(6-chloro-5,7-dimethyl-1H,3H-2,4,7a,8-tetraaza-cyclopenta[a]inden-2-yl)-methanone]: the melting point was 165 to 170 °C. Consider `Cc1nc2c3c(nn2c(C)c1Cl)CN(C(=O)c1ccc(F)cc1OCCn1cccn1)C3` [Example 18, (6-chloro-5,7-dimethyl-1H,3H-2,4,7a,8-tetraaza-cyclopenta[a]inden-2-yl)-[4-fluoro-2-(2-pyrazol-1-yl-ethoxy)-phenyl]-methanone], for which, in series [1], the EC50 is 200 to 1000 nM. `Cc1nc2c3c(nn2c(C)c1C)CN(C(=O)c1ccccc1OCCn1cccn1)C3` [Example 24, [2-(2-pyrazol-1-yl-ethoxy)-phenyl]-(5,6,7-trimethyl-1H,3H-2,4,7a,8-tetraaza-cyclopenta[a]inden-2-yl)-methanone] yielded an EC50 in series [1] of 200 to 1000 nM. Molecule `Cc1nc2c3c(nn2c(C)c1Cl)CN(C(=O)c1ccccc1CN1CCNC(C)C1)C3` (stereo not shown) [Example 116, (6-chloro-5,7-dimethyl-1H,3H-2,4,7a,8-tetraaza-cyclopenta[a]inden-2-yl)-[2-(3-methyl-piperazin-1-ylmethyl)-phenyl]-methanone] returned a melting point of 195 to 200 °C. `Cc1nc2c3c(nn2c(C)c1Cl)CN(C(=O)c1ccccc1CN1CC(N(C)C)C1)C3` [Example 126, (6-chloro-5,7-dimethyl-1H,3H-2,4,7a,8-tetraaza-cyclopenta[a]inden-2-yl)-[2-(3-dimethylamino-azetidin-1-ylmethyl)-phenyl]-methanone] showed a melting point of 159 to 162 °C. `Cc1nc2c3c(nn2c(C)c1C)CN(C(=O)c1ccccc1OCCN1CCCCC1)C3` [Example 20, [2-(2-piperidin-1-yl-ethoxy)-phenyl]-(5,6,7-trimethyl-1H,3H-2,4,7a,8-tetraaza-cyclopenta[a]inden-2-yl)-methanone] yielded an EC50 in series [1] of 200 to 1000 nM.

`Cc1nc2c3c(nn2c(C)c1Cl)CN(C(=O)c1ccccc1CN1C[C@H]2CN(C)C[C@H]2C1)C3` [Example 94, (6-chloro-5,7-dimethyl-1H,3H-2,4,7a,8-tetraaza-cyclopenta[a]inden-2-yl)-[2-((3aR,6aS)-5-methyl-hexahydro-pyrrolo[3,4-c]pyrrol-2-ylmethyl)-phenyl]-methanone] had a melting point of 174 to 177 °C. The molecule `Cc1nc2c3c(nn2c(C)c1Cl)CN(C(=O)c1ccccc1OC(F)(F)C(F)F)C3` [Example 2, (6-chloro-5,7-dimethyl-1H,3H-2,4,7a,8-tetraaza-cyclopenta[a]inden-2-yl)-[2-(1,1,2,2-tetrafluoro-ethoxy)-phenyl]-methanone] displayed an EC50 in series [1] below 200 nM. As to `CCOc1ccccc1C(=O)N1Cc2nn3cc(Br)cnc3c2C1` [Example 48, (6-bromo-1H,3H-2,4,7a,8-tetraaza-cyclopenta[a]inden-2-yl)-(2-ethoxy-phenyl)-methanone], in series [1], the EC50 lay in the range of 1000 to 2000 nM. Take `CCOc1ccccc1C(=O)N1Cc2nn3c(C)c(CC)c(C)nc3c2C1` [Example 27, (2-ethoxy-phenyl)-(6-ethyl-5,7-dimethyl-1H,3H-2,4,7a,8-tetraaza-cyclopenta[a]inden-2-yl)-methanone]: in series [1], the EC50 lay in the range of 1000 to 2000 nM.

As usually defined, the melting point is the temperature, or range, at which the solid turns liquid. For orientation: EC50 means the concentration that produces a half-maximal response.

These data come from patent US9403835B2, “Tetraaza-cyclopenta[a]indenyl and their use as positive allosteric modulators” (Merck Patent GmbH, priority 2011, dated 2016).
